What was measured:
[1] = Mouse body weight during treatment; assay type: in vivo; details: MK0677 1.5 mg/kg, daily i.p.
Excerpt: Agonist treatment on mice.
(§1) Mice and agonist treatment.

[2] = tested on: hippocampal neurons; test: Synaptic density (vGLUT1/PSD95) in cultured hippocampal neurons; assay type: cell-based, mouse
Protocol: Immunocytochemistry. […] NIS element software was used for image analysis. “Objective Count” dialog was used for intensity measurement. […] The overlapped dots represent synapses.
Primary hippocampal neuron culture. Hippocampal neuron cultures were prepared as previously described (15). In brief, mouse hippocampi were dissected from postnatal day 0-1 pups in cold HBSS. Cells were dissociated by using 0.025% trypsin at 37° C. for 15 minutes, followed by 10 times homogenization in ice cold DMEM. Dissociated cells were then passed through a 100 μm cell strainer (Corning) and centrifuged for 5 minutes at 210×g. The pellet was gently resuspended in neuron culture medium (Neurobasal A with 2% B27 supplement, 0.5 mM L-glutamine, Invitrogen) and plated on poly-D-lysine (Sigma-Aldrich) coated Lab-Tek chamber slides (Nunc, 177445) with appropriate densities.
Agonist treatment on primary cultured neurons. At 14 days in vitro (DIV14) hippocampal neurons were exposed to the synthetic growth hormone secretagogue receptor agonist MK0677 (Tocris, #5272, 1.5 μM) the dopamine D1-like receptor agonist SKF81297 (Sigma-Aldrich, #S143, 2 μM) or a mixture of MK0677 and SKF81297 for 5 minutes. The exposure was followed by immunostaining to examine the effects of Ghsr1α/Drd1 co-activation on Aβ induced synaptic loss or Ghsr1α/Drd1, Aβ/Ghsr1α interaction as described in previous sections.

[3] = tested on: patients with AD; details: clinical trial; cited from earlier work
[4] = tested on: 5×FAD mice; test: Morris water maze test; details: MK0677 1.5 mg/kg, daily i.p., one month
Protocol: Mice and agonist treatment. […] Mice were used in pairs of age-matched non-transgenic mice (non-TG). Genotypes of animals were confirmed using PCR and/or amyloid plaque staining. The number of mice used was determined by previous data and calculations to ensure that the minimal number of mice as required was used in these experiments. […] Mouse body weight was recorded every five days until euthanasia. After the 1-month treatment, the mice were subjected to the Morris water maze behavioral test and then euthanized for tissue collection following IACUC-approved procedures.
Mouse behavioral test. The Morris water maze test was performed as previously described in order to test changes in mouse spatial learning and memory [3, 50]. Mice were randomly grouped by gender, genotypes and treatments (which the experimenter was blind to) and then transferred to the testing environment at least 0.5 hours before tests. During the test, mice were trained to find a hidden platform (20 cm diameter) in an open swimming pool (200 cm diameter) filled with 21° C. water (non-toxic white dye was used to hide the platform). Four trials were performed each day for 12 days. Each trial started at a different position (NW, N, E, SE) while the platform was kept in the same location (SW). […] Probe results were analyzed using the platform location crossed frequency value.

[5] = tested on: 5×FAD mice; test: Survival of mice under daily MK0677 i.p. injection; assay type: in vivo, mouse; details: 30 days
Protocol: To determine whether MK0677 mitigates hippocampal lesions in 5×FAD mice, the inventor first sought to determine the optimal dose of MK0677. 5×FAD mice at 3 months old received either saline or MK0677 at 1.5 or 3 mg/kg via daily i.p. injection for 30 days (FIGS. 12a). 5×FAD mice at 3 months old have little to no hippocampal lesions and indiscernible behavioral change, both of which become prominent at 4 months of age (the endpoint of treatment). The doses of MK0677 were chosen based on previous studies. […] The inventor therefore selected 5×FAD mice that received the 1.5 mg/kg dose of MK0677 for biological response assays. Next, he examined the impact of MK0677 treatment on hippocampal Aβ deposition in 5×FAD mice. To this end, immunofluorescent staining using the specific antibody against Aβ was performed to visualize Aβ plaques.
as §1

In the case of `CC(C)(N)C(=O)N[C@H](COCc1ccccc1)C(=O)N1CCC2(CC1)CN(S(C)(=O)=O)c1ccccc12` [MK0677], the mouse body weight [1] is reported as “did not affect mouse body weight”, the “synaptic density / oligomeric Aβ42-induced synapse loss” value ([2]; oligomeric Aβ42 1 μM, 24 hours, 1.5 μM MK0677, 2 μM SKF81297, or in combination) is reported as “did not mitigate” and the “synaptic density, agonist alone” value ([2]; without oligomeric Aβ42, MK0677 at doses greater than 1.5 μM, SKF81297 2 μM) is reported as “substantially promoted synaptic formation”. For the same compound, the “clinical benefits in patients with AD” value [3] was “failed to show clinical benefits”, the “spatial reference learning and memory (genotypic cognitive impairment)” value [4] was “failed to show any protective effect” and the “5×FAD mouse survival vs saline” value ([5]; MK0677 1.5 mg/kg) was “little effect”. For the same compound, the “mortality of 5×FAD mice” value ([5]; MK0677 3 mg/kg) was “significantly increased the mortality”.

— patent US20220370471A1, “COMPOSITION AND METHOD FOR TREATMENT OF HIPPOCAMPAL SYNAPSE DYSFUNCTION AND COGNITIVE DEFICITS IN ALZHEIMER'S DISEASE” (BOARD OF REGENTS, THE UNIVERSITY OF TEXAS SYSTEM, priority 2019, published 2022)
